Earlier results as cited in patent US20240189256A1, “COMPOSITIONS FOR PRE-SURGICAL NUTRITIONAL SUPPLEMENTS” (TM Nutrition LLC, priority 2022, published 2024).

Columns and labels:
[1] = unless sepsis is present
[2] = given orally

N=C(N)NCCC[C@H](N)C(=O)O [arginine]
supplementation safe and well tolerated up to [1]: up to 10 g/day
half-life [2]: 1.5 to 2 h
